Source: patent US20060229242A1, “Composition comprising a pulmonary surfactant and a pde2 inhibitor” (Altana Phazma AG, priority 2003, published 2006)

Test system: Male Wistar rats
Experiment: Rat lung lavage experiment: arterial blood oxygenation after repeated saline lung lavage
Format: in vivo
Conditions: rat lung lavage model; intratracheal, 1.2 mL, 60 min after lavage; PODPO 100 nM alone, or VENTICUTE 12.5 mgPL/kg with PODPO 100 nM (p<0.05 to p<0.001 versus VENTICUTE alone); up to 150 min
Procedure: (§1) Male Wistar rats were prepared according to Example 5 and lungs were ravaged 5-9 times with NaCl 0.9% (=>PaO2˜50-100 mmHg). After 60 min NaCl 0.9% (open circles), VENTICUTE 12.5 mgPL/kg (filled squares, PL=Phospholipids), PODPO (9-(6-Phenyl-2-oxohex-3-yl)-2-(3,4-dimethoxybenzyl)-purin-6-one) 100 nM (stars), or VENTICUTE 12.5 mgPL/kg in combination with PODPO 100 nM (open squares) was administered intratracheally (administration volume 1.2 mL). Arterial blood oxygenation (PaO2) was determined every 30 min up to 150 min after drug administration (t=210 min). […] Data are shown as mean±SEM. * p<0.05, *** p<0.001 versus VENTICUTE 12.5 mgPL/kg.
as §1, with “rats (220-250 g)” for “rats”, “anaesthetized, catheterised” for “prepared according”, “withdraw arterial blood,” for “Example 5”, “and ventilated with pure oxygen (=>PaO2˜500-550 mmHg). 30 min later” for “and”, “lavaged” for “ravaged”

COc1ccc(Cc2nc3c(ncn3C(CCCc3ccccc3)C(C)=O)c(=O)[nH]2)cc1OC (stereo not shown) [PODPO, 9-(6-Phenyl-2-oxohex-3-yl)-2-(3,4-dimethoxybenzyl)-purin-6-one]
Influence on arterial blood oxygenation (PaO2), in words: no influence on oxygenation
